US20100028889A1, “COMPANION DIAGNOSTIC ASSAYS FOR CANCER THERAPY” (ABBOTT LABORATORIES, priority 2006, published 2010)
pEC50: −log10 of the molar value.

Key:
Assay in all cases: sensitivity of leukemia/lymphoma cell line, 5 uM cut-off
Format in all cases: cell-based
Raji = settings: Homo sapiens, read-out: sensitivity class by EC50
Procedure: (§1) The following SCLC cell lines were obtained from ATCC (Manassis, Va.): NCI-H889, NCI-H1963, NCI-H1417, NCI-H146, NCI-H187, DMS53, NCI-H510, NCI-H209, NCI-H211, NCI-H345, NCI-H524, NCI-H69, DMS79, SHP77, NCI-H1688, NCI-H446, NCI-H740, NCI-H1048, NCI-H82, NCI-H196, SW1271, H69AR, NCI-H526, NCI-H865, NCI-H748, NCI-H711, and DMS114. All cells were cultured in the ATCC recommended media at 37° C. in a humidified atmosphere containing 5% CO2. The following leukemia and lymphoma cell lines were obtained from ATCC (Manassis, Va.): MV-4-11, RS4;11, Loucy, KG-1A, DOHH2, Rs11380, CCRF-HSB-2, CCRF-CEM, CEM/C1, Reh, SUP-B15, MOLT-4, SUDHL4, HL-60, RPMI 8226, A3, Daudi, WSU-NHL, Pfeiffer, Jurkat I 9.2, Jurkat, MEG-01, U-937, K-562, and Raji.
(§2) The 25 leukemia/lymphoma cell lines were also tested for sensitivity to ABT-737 using the 5 uM cut-off, and sensitive cell lines were MV-4-11, RS4;11, Loucy, KG-1A, DOHH2, Rs11380, CCRF-HSB-2, CCRF-CEM, CEM/C1, Reh, SUP-B15, MOLT-4, SUDHL4, HL-60, RPMI 8226, A3, Daudi, WSU-NHL, Pfeiffer, and Jurkat I 9.2, and the resistant cell lines Jurkat, MEG-01, U-937, K-562, and Raji.
as §2, with “ABT-263” for “ABT-737”

K-562 = settings: Homo sapiens, K562, read-out: sensitivity class by EC50
Procedure: as §1, §2
as §2, with “ABT-263” for “ABT-737”

MV-4-11 = settings: Homo sapiens, MV4-11, read-out: sensitivity class by EC50
Procedure: as §1, §2
as §2, with “ABT-263” for “ABT-737”

Rs11380 = settings: Homo sapiens, read-out: sensitivity class by EC50
Procedure: as §1, §2
as §2, with “ABT-263” for “ABT-737”

SUP-B15 = settings: Homo sapiens, read-out: sensitivity class by EC50
Procedure: as §1, §2
as §2, with “ABT-263” for “ABT-737”

Pfeiffer = settings: Homo sapiens, read-out: sensitivity class by EC50
Procedure: as §1, §2
as §2, with “ABT-263” for “ABT-737”

WSU-NHL = settings: Homo sapiens, read-out: sensitivity class by EC50
Procedure: as §1, §2
as §2, with “ABT-263” for “ABT-737”

Reh = settings: Homo sapiens, read-out: sensitivity class by EC50
Procedure: as §1, §2
as §2, with “ABT-263” for “ABT-737”

A3 = settings: Homo sapiens, read-out: sensitivity class by EC50
Procedure: as §1, §2
as §2, with “ABT-263” for “ABT-737”

CEM/C1 = settings: Homo sapiens, read-out: sensitivity class by EC50
Procedure: as §1, §2
as §2, with “ABT-263” for “ABT-737”

Daudi = settings: Homo sapiens, read-out: sensitivity class by EC50
Procedure: as §1, §2
as §2, with “ABT-263” for “ABT-737”

MEG-01 = settings: Homo sapiens, read-out: sensitivity class by EC50
Procedure: as §1, §2
as §2, with “ABT-263” for “ABT-737”

DOHH2 = settings: Homo sapiens, DOHH-2, read-out: sensitivity class by EC50
Procedure: as §1, §2
as §2, with “ABT-263” for “ABT-737”

MOLT-4 = settings: Homo sapiens, read-out: sensitivity class by EC50
Procedure: as §1, §2
as §2, with “ABT-263” for “ABT-737”

CCRF-CEM = settings: Homo sapiens, read-out: sensitivity class by EC50
Procedure: as §1, §2
as §2, with “ABT-263” for “ABT-737”

CCRF-HSB-2 = settings: Homo sapiens, read-out: sensitivity class by EC50
Procedure: as §1, §2
as §2, with “ABT-263” for “ABT-737”

Loucy = settings: Homo sapiens, read-out: sensitivity class by EC50
Procedure: as §1, §2
as §2, with “ABT-263” for “ABT-737”

RS4;11 = settings: Homo sapiens, read-out: sensitivity class by EC50
Procedure: as §1, §2
as §2, with “ABT-263” for “ABT-737”

Jurkat I 9.2 = settings: Homo sapiens, read-out: sensitivity class by EC50
Procedure: as §1, §2
as §2, with “ABT-263” for “ABT-737”

HL-60 = settings: Homo sapiens, read-out: sensitivity class by EC50
Procedure: as §1, §2
as §2, with “ABT-263” for “ABT-737”

RPMI 8226 = settings: Homo sapiens, read-out: sensitivity class by EC50
Procedure: as §1, §2
as §2, with “ABT-263” for “ABT-737”

KG-1A = settings: Homo sapiens, read-out: sensitivity class by EC50
Procedure: as §1, §2
as §2, with “ABT-263” for “ABT-737”

SUDHL4 = settings: Homo sapiens, SU-DHL-4, read-out: sensitivity class by EC50
Procedure: as §1, §2
as §2, with “ABT-263” for “ABT-737”

U-937 = settings: Homo sapiens, read-out: sensitivity class by EC50
Procedure: as §1, §2
as §2, with “ABT-263” for “ABT-737”

Jurkat = settings: Homo sapiens, read-out: sensitivity class by EC50
Procedure: as §1, §2
as §2, with “ABT-263” for “ABT-737”

**Q.** Which results are given for `CC1(C)CCC(c2ccc(Cl)cc2)=C(CN2CCN(c3ccc(C(=O)NS(=O)(=O)c4ccc(N[C@H](CCN5CCOCC5)CSc5ccccc5)c(S(=O)(=O)C(F)(F)F)c4)cc3)CC2)C1` [ABT-263, N-(4-(4-((2-(4-chlorophenyl)-5,5-dimethyl-1-cyclohex-1-en-1-yl)methyl)piperazin-1-yl)benzoyl)-4-(((1R)-3-(morpholin-4-yl)-1-((phenylsulfanyl)methyl)propyl)amino)-3-((trifluoromethyl)sulfonyl)benzenesulfonamide]?
**A.** pEC50 (Raji): < 5.30; pEC50 (K-562): < 5.30; pEC50 (MV-4-11): > 5.30; pEC50 (Rs11380): > 5.30; pEC50 (SUP-B15): > 5.30; pEC50 (Pfeiffer): > 5.30; pEC50 (WSU-NHL): > 5.30; pEC50 (Reh): > 5.30; pEC50 (A3): > 5.30; pEC50 (CEM/C1): > 5.30; pEC50 (Daudi): > 5.30; pEC50 (MEG-01): < 5.30; pEC50 (DOHH2): > 5.30; pEC50 (MOLT-4): > 5.30; pEC50 (CCRF-CEM): > 5.30; pEC50 (CCRF-HSB-2): > 5.30; pEC50 (Loucy): > 5.30; pEC50 (RS4;11): > 5.30; pEC50 (Jurkat I 9.2): > 5.30; pEC50 (HL-60): > 5.30; pEC50 (RPMI 8226): > 5.30; pEC50 (KG-1A): > 5.30; pEC50 (SUDHL4): > 5.30; pEC50 (U-937): < 5.30; pEC50 (Jurkat): < 5.30

**Q.** With `CN(C)CC[C@H](CSc1ccccc1)Nc1ccc(S(=O)(=O)NC(=O)c2ccc(N3CCN(Cc4ccccc4-c4ccc(Cl)cc4)CC3)cc2)cc1[N+](=O)[O-]` [ABT-737, N-(4-(4-((4′-chloro(1,1′-biphenyl)-2-yl)methyl)piperazin-1-yl)benzoyl)-4-(((1R)-3-(dimethylamino)-1-((phenylsulfanyl)methyl)propyl)amino)-3-nitrobenzenesulfonamide] as the compound, how does the pEC50 (Raji) read?
**A.** The pEC50 was less than 5.30.

**Q.** And the pEC50 (K-562)?
**A.** Its pEC50 is less than 5.30.

**Q.** And the pEC50 (MV-4-11)?
**A.** Its pEC50 is greater than 5.30.

**Q.** And the pEC50 (Rs11380)?
**A.** The pEC50 was greater than 5.30.

**Q.** What about the pEC50 (SUP-B15) of the same compound?
**A.** The pEC50 was greater than 5.30.

**Q.** What about the pEC50 (Pfeiffer) of the same compound?
**A.** The pEC50 was greater than 5.30.

**Q.** What about the pEC50 (WSU-NHL) of the same compound?
**A.** Its pEC50 is greater than 5.30.

**Q.** And the pEC50 (Reh)?
**A.** Its pEC50 is greater than 5.30.

**Q.** What about the pEC50 (A3) of the same compound?
**A.** The pEC50 was greater than 5.30.

**Q.** And the pEC50 (CEM/C1)?
**A.** The pEC50 was greater than 5.30.

**Q.** And the pEC50 (Daudi)?
**A.** Its pEC50 is greater than 5.30.

**Q.** And the pEC50 (MEG-01)?
**A.** Its pEC50 is less than 5.30.

**Q.** What about the pEC50 (DOHH2) of the same compound?
**A.** The pEC50 was greater than 5.30.

**Q.** What about the pEC50 (MOLT-4) of the same compound?
**A.** The pEC50 was greater than 5.30.

**Q.** What about the pEC50 (CCRF-CEM) of the same compound?
**A.** The pEC50 was greater than 5.30.

**Q.** And the pEC50 (CCRF-HSB-2)?
**A.** The pEC50 was greater than 5.30.

**Q.** What about the pEC50 (Loucy) of the same compound?
**A.** Its pEC50 is greater than 5.30.

**Q.** And the pEC50 (RS4;11)?
**A.** Its pEC50 is greater than 5.30.

**Q.** And the pEC50 (Jurkat I 9.2)?
**A.** The pEC50 was greater than 5.30.

**Q.** What about the pEC50 (HL-60) of the same compound?
**A.** Its pEC50 is greater than 5.30.

**Q.** And the pEC50 (RPMI 8226)?
**A.** Its pEC50 is greater than 5.30.

**Q.** And the pEC50 (KG-1A)?
**A.** Its pEC50 is greater than 5.30.

**Q.** What about the pEC50 (SUDHL4) of the same compound?
**A.** The pEC50 was greater than 5.30.

**Q.** And the pEC50 (U-937)?
**A.** The pEC50 was less than 5.30.

**Q.** And the pEC50 (Jurkat)?
**A.** The pEC50 was less than 5.30.
